Measured values as given in patent US20070259354A1, “OPTIMIZED TRPM8 NUCLEIC ACID SEQUENCES AND THEIR USE IN CELL BASED ASSAYS AND TEST KITS TO IDENTIFY TRPM8 MODULATORS” (Senomyx, Inc., priority 2005, published 2007).
Where two headings read alike, the source gives them in different places.

Tests used:
[1] = Human taste test, cooling intensity; type: in vivo; details: five human panelists, two trials, Tukey's HSD 5% risk level
Description: In this experiment the cooling effect of a putative coolant, SID 391254, identified using the subject assays was analyzed in human taste tests. Particularly, the cooling intensity for three test samples was tested in five human volunteer panelists in two trials. […] The tests were conducted in booths with the data recorded using Compusense software. Additionally, these experiments further included the administration of WS-3, a known coolant (positive control).
For both samples containing the known or the putative cooling compound (WS-3 and SID 391254 respectively), these compounds were contained in low sodium buffer (LSB) and 0.1% ethanol.
This experiment compared the cooling effect of another putative coolant compound (SID 10135651) identified using the described assays. […] As with the prior example, significant differences between the known and putative coolant compound vis-à-vis the control were calculated using Tukey's HSD (5% risk level). […] These tests were again conducted in booths with the data recorded using Compusense software.
The coolant effect of another putative cooling compound (SID 7292725) identified using the subject screening assays was tested in human taste tests. Again cooling intensity scores were determined based on results in 5 human taste panelists in two trials. Significant differences were again calculated using Tukey's HSD (5% risk level).

rat TRPM8 [2] = target: T1, rat TRPM8 (Rattus norvegicus, UniProt Q8R455); assay: Voltage clamp electrophysiology in Xenopus oocytes expressing rat TRPM8 (OpusXpress); type: cell-based; details: for peak agonist-induced currents: 4-6 independent oocytes; for peak agonist-induced currents / desensitization of agonist-induced currents: one day post-injection; for desensitization of agonist-induced currents: continued presence of agonist; for specific activation of rat TRPM8 expressed in oocytes: no responses in uninjected control oocytes
T1 construct: In the assays exemplified herein, cells which express the full-length TRPM8 polypeptide are used in high throughput assays; expressed in transfected cells; host or cells: Xenopus oocytes microinjected with rat TRPM8 cRNA
Description: Xenopus oocytes are microinjected with a TRPM8 nucleic acid sequence according to the invention.
The microinjected oocytes are voltage-clamped at around 60 mV using the OpusXpress 600A one day post-injection and treated with either buffer (control) or a potential or known TRPM8 modulator contained in same buffer at a fixed concentration or over a range of different concentrations (dose-escalation).
The current is measured for said buffer-treated or putative TRPM8 modulator-treated oocytes over a specific time period. Additionally, the current response is measured for oocytes treated with the same buffer which are not injected with a TRPM8 nucleic acid sequence (negative control).
The current response for said oocytes is compared in order to determine the effect (if any) of said potential TRPM8 modulator compound on TRPM8 activity and whether said effect is dose-specific.
In this experiment an electrophysiological assay was conducted using oocytes that express rat TRPM8. Specifically, oocytes were microinjected with 10 ng rat TRPM8 cRNA and were voltage-clamped at ˜60 mV using the OpusXpress 600A one day post-injection and treated with buffer and menthol (left traces) or icilin (right traces).
Oocytes were microinjected with 10 ng rat TRPM8 […] and voltage-clamped at ˜60 mV using the OpusXpress 6000A one day post-injection and then treated with the compounds shown in the FIG. 6. In the Figure, peak agonist-induced currents are summarized for 4-6 independent oocytes.
In these experiments, oocytes were again injected with 2 ng rat TRPM8 cRNA (as shown in left panel of FIG. 7) or uninjected (right panel) and currents were measured from ˜80 mV to 100 mV (in 20 mV increments) in the presence of buffer (control; green curves) or 100 μM menthol (red curves) four days post-injection. The blue curves in FIG. 7 depict menthol-specific currents obtained by subtracting control (green) from menthol (red) curves.
In this experiment, oocytes were again microinjected with 10 ng rat TRPM8 cRNA, voltage-clamped at ˜60 mV and currents measured 2-3 days post-injection.

rat TRPM8 [3] = target: T1, rat TRPM8; assay: Fluorimetric calcium imaging (FLIPR), HEK293 cells transiently transfected with rat TRPM8; type: cell-based; details: chilled stimulus compared with warmer stimulus
Description: HEK-293 cells (about 50-70% confluency) contained in 10 cm dishes are transfected with 5 μg of TRPM8 DNA and pcDNA3 and 2 μg of RFP plasmids using TransH293.
After 24 hours, the cells are split into 384-well plates at ˜50,000 cells/well.
At 48 hours post-transfection the cells are loaded with 4 μM Fluo-3-AM 3 AM in HBSS for 30 minutes at 37° C.
The cells are then washed twice within HBSS containing 2.5 mM Probenicid and returned to 37° C. for 15 minutes.
Compound plates are prepared in HBSS at twice the final concentration and kept at 37° C. to insure that rTRPM8 is not activated by a decrease in ambient temperature during stimulation (TRPM8 is activated by temperatures<22° C.).
HEK293 cells are transfected with a plasmid encoding the rat TRPM8 cDNA (in pcDNA3.1) and are seeded into 384-well plates. 48 hours later, cells are loaded with Fluo-3-AM. Cells are then stimulated with various stimuli as shown in FIG. 2 and fluorescence intensity in each well measured using a Fluorimetric Imaging Plate Reader (FLIPR). […]
HEK293 cells transfected with a plasmid encoding rat TRPM8 cDNA contained in pcDNA3.1 were seeded into 384-well plates. […] Cells were then stimulated with the stimuli shown in FIG. 3 and fluorescence intensity in each well measured using a Fluorimetric Imaging Plate Reader (FLIPR). […]

rat TRPM8 [4] = target: T1, rat TRPM8; details: 22-24° C., McKemy et al. Nature 416:52-58 (2002); read-out: reported EC50 in oocytes; cited from earlier work

T1 sequence (Q8R455 whole entry): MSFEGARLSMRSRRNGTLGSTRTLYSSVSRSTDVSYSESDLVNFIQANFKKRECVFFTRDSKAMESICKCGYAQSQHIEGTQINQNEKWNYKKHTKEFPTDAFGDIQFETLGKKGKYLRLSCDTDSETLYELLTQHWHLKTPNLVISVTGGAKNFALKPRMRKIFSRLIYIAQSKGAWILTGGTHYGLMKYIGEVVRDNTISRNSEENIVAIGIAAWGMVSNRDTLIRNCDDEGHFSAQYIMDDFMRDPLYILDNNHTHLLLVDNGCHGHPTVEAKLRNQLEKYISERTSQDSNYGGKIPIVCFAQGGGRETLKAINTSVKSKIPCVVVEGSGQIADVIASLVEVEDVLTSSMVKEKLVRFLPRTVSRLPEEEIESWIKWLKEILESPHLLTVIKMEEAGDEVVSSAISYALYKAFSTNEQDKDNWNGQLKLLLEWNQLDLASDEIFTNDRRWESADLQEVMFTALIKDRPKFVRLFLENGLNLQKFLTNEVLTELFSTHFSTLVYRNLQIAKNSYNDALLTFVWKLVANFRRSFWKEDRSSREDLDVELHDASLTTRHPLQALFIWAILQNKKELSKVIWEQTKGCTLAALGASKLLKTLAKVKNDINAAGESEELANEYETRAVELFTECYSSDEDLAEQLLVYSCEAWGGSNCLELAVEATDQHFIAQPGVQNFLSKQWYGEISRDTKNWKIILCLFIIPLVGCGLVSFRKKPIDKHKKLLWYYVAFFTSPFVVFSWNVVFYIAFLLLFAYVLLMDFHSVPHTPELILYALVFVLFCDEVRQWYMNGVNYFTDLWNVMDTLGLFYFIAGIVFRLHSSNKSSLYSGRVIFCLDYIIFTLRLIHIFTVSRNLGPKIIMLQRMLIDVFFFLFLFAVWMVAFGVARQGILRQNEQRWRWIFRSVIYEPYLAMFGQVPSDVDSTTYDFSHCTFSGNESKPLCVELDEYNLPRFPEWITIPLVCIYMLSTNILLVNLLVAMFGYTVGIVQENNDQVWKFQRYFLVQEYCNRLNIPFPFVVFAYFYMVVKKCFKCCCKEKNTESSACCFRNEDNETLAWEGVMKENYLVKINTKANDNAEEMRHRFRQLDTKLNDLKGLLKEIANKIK

Row | peak agonist-induced currents (rat TRPM8 [2]) | Compound | cooling intensity compared with negative control (LSB and 0.1% ethanol) [1] | potency of chilled versus warmer agent at activating TRPM8 (rat TRPM8 [3]) | desensitization of agonist-induced currents (rat TRPM8 [2]) | specific activation of rat TRPM8 expressed in oocytes (rat TRPM8 [2]) | EC50 (rat TRPM8 [4]) | current/voltage (I/V) curve of menthol-specific currents (rat TRPM8 [2]; 100 μM menthol, 2 ng cRNA, four days post-injection) | EC50 (rat TRPM8 [2]; oocytes, 10 ng rat TRPM8 cRNA, 19.5° C.)
1 |  | CCNC(=O)C1CC(C)CCC1C(C)C (centres unmarked) [WS-3] | substantially higher cooling intensity |  |  |  |  |  | 
2 | small peak currents | CC12CCC(CC1)C(C)(C)O2 [eucalyptol] |  |  |  |  |  |  | 
3 | large peak currents | O=C1NC(c2cccc([N+](=O)[O-])c2)=CCN1c1ccccc1O [icilin] |  | more potent | completely desensitize | specifically activate |  |  | 
4 | small peak currents | C [methane] |  |  |  |  |  |  | 

Row | Compound | peak agonist-induced currents (rat TRPM8 [2]) | cooling intensity compared with negative control (LSB and 0.1% ethanol) [1] | potency of chilled versus warmer agent at activating TRPM8 (rat TRPM8 [3]) | desensitization of agonist-induced currents (rat TRPM8 [2]) | specific activation of rat TRPM8 expressed in oocytes (rat TRPM8 [2]) | EC50 (rat TRPM8 [4]) | current/voltage (I/V) curve of menthol-specific currents (rat TRPM8 [2]; 100 μM menthol, 2 ng cRNA, four days post-injection) | EC50 (rat TRPM8 [2]; oocytes, 10 ng rat TRPM8 cRNA, 19.5° C.)
5 | CC1CCC(C(C)C)C(O)C1 (centres unmarked) [menthol] | large peak currents |  | more potent | partially-desensitize | specifically activate | 67 µM | outward rectification | 29.6 µM
